Read-outs that look alike come from different tables or passages of the source.
How the values were obtained:
BamA [1] = settings: BamA identified as target; Gram-negative bacteria; ref Hart et al., 2019; Li et al., 2020; cited from earlier work
From the text: Among the putative Mag-2 interactors, we focused our attention on the Bam complex as the proteomic experiment led to the identification of all the protein components of this complex essential for bacterial surviving. In particular, BamA is the central component of the Bam complex while BamB, -C, -D and -E are four lipoproteins with a secondary role.

[2] = cited from earlier work
From the text: Biophysical studies led to hypothesize three models that can explain the membrane disruption by AMPs: barrel-stave, toroidal pore and carpet mechanisms ([Di Somma et al., 2020]). According to these mechanisms, antimicrobial peptides interact with bacterial outer membranes, perturbing their integrity and causing their disaggregation ([Huang, 2006]). Most of AMPs show pore formation after binding to the membrane surface. X-ray crystallization studies and spectroscopic analyses reported that Alamethicin, a channel-forming peptide, insert into the lipid bilayer to form a barrel-stave pore structur ...

BamAp5 = biological target: T1, BamAp5 (Escherichia coli, UniProt P0A940); assay: Intrinsic fluorescence binding titration; parameters: species or system E. coli
T1 construct: 6xHis; made in house; host or cells: E. coli BL21
Method: Fluorescence experiments were performed on a Fluoromax-4 spectrofluorometer from Horiba Scientific, using 1 cm optical path-length quartz cell under controlled temperature conditions (Peltier control system at 20°C). Titrations were carried out in 20 mM Tris-HCl pH 8.4, 0.2% triton. The intrinsic fluorescence intensity of BamAP5 at a concentration of 3.7 × 10^−6 M was monitored at 280 nm (slit 4 nm) and the emission was monitored at 308 nm (slit 4 nm) without and in the presence of increasing concentrations of Mag-2 peptide (from 2 to 18.64 µM). All experiments were performed in duplicate. The change in the fluorescence intensity of the reaction set was fit into “one site-specific binding” equation of GraphPad Prism 5 (GraphPad Software).

OmpA [3] = assay: LC-MRM/MS quantification of OmpA in E. coli after Mag-2 incubation; type: cell-based
From the text: Cone voltage was set to 35V.

[4] = tested on: E. coli membrane proteins; assay: Pull-down proteomics, number of putative interactors; type: binding; settings: biotinylated Mag-2 on avidin-agarose, biotin elution, LC-MS/MS; absent in control
BamA [5] = tested on: BamA
OmpA [6] = assay: Western blot densitometry of OmpA in E. coli after Mag-2 incubation; type: cell-based; settings: 75 µM Mag-2, 1 h
Method: The E. coli cells were grown in the presence and in the absence of 50 µM Mag-2 for 1h, 2h and 3 h. The level of the OmpA protein was identified by Western Blot using a specific antiOmpA antibody. The amount of OmpA was then evaluated by densitometric analysis of the corresponding western blotted band. […] The same experiment was also carried out using a higher concentration of Mag-2 (75 µM) for as fixed time (1 h).

bacterial membrane = settings: ref Billah et al., 2022; cited from earlier work
From the text: Peptide binding is favoured by both hydrophobic interactions between non-polar amino acids and the hydrophobic nucleus of the membrane and electrostatic interactions between the positive charges of the peptides and the negative charges of lipids ([Bahar and Ren, 2013]). Although the mechanism of action is not yet fully understood at molecular level, it is known that Magain ...

OmpF = settings: 50 µM Mag-2 for 1h, 2 h and 3h; triplicate LC-MS/MS; t-test p < 0.05; with increasing time of incubation
[7] = biological target: T2, 6XHis-tagged E. coli BamAp5 (β-barrel domain and fifth POTRA domain, residues 344-810) (E. coli, UniProt P0A940 344-810); assay: other fluorescence titration; intrinsic fluorescence of 3.7 x 10^-6 M BamAp5 (excitation 280 nm, emission 308 nm) with Mag-2 from 2 to 18.64 µM; 20 mM Tris-HCl pH 8.4, 0.2% triton, 20°C; one site-specific binding fit; duplicate; settings: both partners purified
T2 construct: Monomer by DLS; also called recombinant form of BamA

For `COC(=O)c1c(NC(=O)c2ccc([N+](=O)[O-])o2)sc2c1CCN(C(C)C)C2` [IMB-H4], the “inhibition of the assembly of OMPs” value (BamA [1]) is given as “inhibits the assembly of OMPs in Gram-negative bacteria”.

For `NC(N)=NC(=O)CC(Nc1nc(N=C(N)N)nc(NC2CCC(NC(=O)Cn3nnc(-c4ccc(F)cc4)n3)CC2)n1)C1CC1` (stereo not drawn) [MRL-494], the “inhibition of the assembly of OMPs” value (BamA [1]) is listed as “inhibits the assembly of OMPs in Gram-negative bacteria”.

In the case of Alamethicin, the membrane pore formation ([2]; X-ray crystallization and spectroscopic analyses, ref Qian et al., 2008) is listed as “insert into the lipid bilayer to form a barrel-stave pore structure consisting of eight alamethicin helices”.

With “Magainin-2 (GIGKFLHSAKKFGKAFVGEIMNS) [Mag-2]” the Kd (BamAp5; intrinsic fluorescence quenching, ex 280 nm, em 308 nm, BamAP5 3.7 × 10^−6 M, Mag-2 2 to 18.64 µM, 20 mM Tris-HCl pH 8.4, 0.2% triton, 20°C, duplicate, one site-specific binding fit, read-out: dissociation constant of the complex, Kd) was 3.5 ± 0.1 µM, the “change of BamAP5 intrinsic fluorescence” value (BamAp5; λexc 280 nm, BamAp5 3.7 × 10^−6 M, increasing Mag-2, 20°C) was “fluorescence decreased at increasing concentrations of the peptide” and the “amount of OmpA peptide 252-263 (DGSVVVLGYTDR) by MRM peak area” value (OmpA [3]; 50 µM Mag-2, 1 h, vs control) was “decrease of the OmpA peptide”. For the same molecule, the “amount of OmpA by MRM” value (OmpA [3]; 50 µM Mag-2 for 1h, 2 h and 3h, triplicate LC-MS/MS, t-test p < 0.05, with increasing time of incubation) was “clear decrease”, the “number of putative protein interactors” value [4] was 35 and the “hydrodynamic radius of the protein in presence of peptide” value (BamA [5]; DLS, 532.5 nm, peptide concentration ten times that of the protein, protein without peptide 4.7 ± 0.1 nm, at least 10 independent measurements) was 4.3 ± 0.1 nm. The “aggregation state by DLS” value (BamA [5]; samples without and with peptide (ten times higher concentration than protein)) was “only the protein monomer is present in both samples”, the “change of OmpA level” value (OmpA [6]) was “rapid and drastic reduction of the OmpA level” and the “mechanism of antimicrobial activity” value (bacterial membrane) was “toroidal mechanism”. For the same molecule, the “amount of OmpF by MRM” value (OmpF) was “clear decrease”.

For Melittin, the membrane pore formation ([2]; fluorescence studies with phospholipid vesicles, ref Lohner and Blondelle, 2005) is listed as “formation of pore coupled with the translocation of peptide across the lipid bilayer”.

B1: Magainin-2 (peptide, UniProt P11006 83-105, looked up)
peptide: GIGKFLHSAKKFGKAFVGEIMNS
notes: Magainin-2 (Mag-2), antimicrobial peptide of the African clawed frog Xenopus laevis; cut product of the magainins precursor; the docking text numbers it to Ser23; also called Mag-2; Maganin-2
For B1, the Kd [7] was 0.0035 ± 0.0001 µM.

Source: publication PMC9620421, “The antimicrobial peptide Magainin-2 interacts with BamA impairing folding of E. coli membrane proteins” (Frontiers in Chemistry, 2022)
